# Read-outs that look alike come from different tables or passages of the source. Marks after values point to notes of the source that are not given here.
# T1: human 5LOX (Homo sapiens, UniProt P09917)
# T1 construct: purchased Cayman Chemical
# T1 sequence (P09917 1-674): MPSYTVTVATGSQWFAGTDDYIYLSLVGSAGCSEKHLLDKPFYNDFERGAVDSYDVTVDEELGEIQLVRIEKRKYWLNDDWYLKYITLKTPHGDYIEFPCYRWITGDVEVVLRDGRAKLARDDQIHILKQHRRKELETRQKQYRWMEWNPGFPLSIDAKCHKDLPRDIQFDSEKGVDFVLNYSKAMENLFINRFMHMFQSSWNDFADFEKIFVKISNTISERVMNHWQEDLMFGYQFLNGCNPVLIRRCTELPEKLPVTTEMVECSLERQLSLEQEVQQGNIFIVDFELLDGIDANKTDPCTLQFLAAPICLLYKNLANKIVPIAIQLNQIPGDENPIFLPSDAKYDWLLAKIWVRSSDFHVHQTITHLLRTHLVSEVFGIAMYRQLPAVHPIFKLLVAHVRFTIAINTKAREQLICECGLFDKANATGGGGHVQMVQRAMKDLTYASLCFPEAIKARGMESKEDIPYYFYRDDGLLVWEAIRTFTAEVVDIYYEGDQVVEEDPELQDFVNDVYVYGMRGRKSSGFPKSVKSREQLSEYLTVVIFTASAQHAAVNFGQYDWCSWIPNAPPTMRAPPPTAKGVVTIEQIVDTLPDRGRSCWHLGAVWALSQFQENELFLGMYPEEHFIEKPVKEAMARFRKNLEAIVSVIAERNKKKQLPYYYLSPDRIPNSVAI
# B1: 5LOX: Human recombinant 5LOX (Cayman Chemical) (protein, UniProt P09917 1-674, looked up)
# Polyunsaturated fatty acid …: T1 sequence (P09917 1-674)
# Assays:
# [1] = test system: C6 astrocyte culture exposed to lipopolysaccharide plus interferon gamma; conditions: LPS-stimulated C6 astrocyte model, Soliman et al., 1998; cited from earlier work
# C57/B6 mice = assay: 3-nitropropionic acid (3NP) striatal damage model, rotarod and balance beam; assay type: in vivo; conditions: 2500 ppm in diet for one month, then 3NP 50 mg/kg i.p. every 12 h for 5 days
# Description: Mice were then injected with 50 mg/kg 3NP intraperitoneally, every 12 h for 5 days. Motor performance was assessed daily by a rotarod task and balance was assessed by a balance wire task. In the rotarod task (Hensley et al. 2002), animals were placed on a bar rotating at 1 rpm and accelerating 10 rpm/minute until the animal fell from the bar. In the balance beam test, mice were placed on a 2-cm balance beam by suspending them by the tail, orienting them perpendicular to the beam, and placing the forepaws followed by hindpaws on the balance beam. Mice were left on the beam until they fell onto a soft cushion 75 cm below or until 5 min elapsed. The longest time of each pair of trials was used for statistical analysis.
# [2] = test system: TNFα-Stimulated NO2^− Production in EOC-20 Cells; assay: TNFα-stimulated nitrite (NO2−) production in EOC-20 microglial cells, Griess assay; assay type: cell-based, mouse; conditions: for IC50: read-out: IC50
# Description: Cells were cultured in 24 well plates until confluent then treated with test agent, which was dissolved at 100× final concentration in dimethylsulfoxide (DMSO), or with vehicle only. Thirty minutes after treatment with test agent, cells were treated with 10 ng/mL recombinant mouse TNFα (Pharmingen, San Diego, Calif. USA). […] Each compound was tested at 100 μM, 20 μM, 4 μM, 0.8 μM and 0 μM in the presence of TNFα. Four wells of cells were used for each concentration of test agent.
# (§1) Lower IC50 values indicate improved efficacy. FIG. 2 illustrates the principle of the measurement using NDGA as an example test agent. In order to determine viability, cell culture medium was replaced with phenol-free DMEM (Gibco) containing 20 μL/mL of MTT viability reagent (Promega). […] Control cells were taken to indicate 100% viability and intermediate values of MTT reduction were scaled to percentage of control. For each compound, an LD50 value was determined by extrapolation through sublethal concentrations. This value represents the concentration that reduced the MTT viability parameter by 50%.
# [3] = test system: TNFα-Mediated Nitrite Production in EOC-20 Cells; assay: Leukotrienes added to EOC-20 cells with or without low-dose TNFα, nitrite at 24 h; assay type: cell-based, mouse; conditions: for autonomous stimulation of NO2− production: without TNFα
# Description: Because 5LOX inhibitors tended to antagonize TNFα, the converse experiment was performed of directly adding 5LOX metabolites to EOC-20 cells in the presence or absence of TNFα. LTB4 was added to microglia at 10 μM and TNFα was added at a low dose (4 ng/mL) 10 min later. Nitrite was assayed at 24 h. […] Similar examples exist in the literature of LTB4 synergizing with IFNγ to activate macrophages (Talvani et al., 2002).
# [4] = test system: pro-inflammatory cytokines in EOC-20 microglial cells; assay: Multiprobe ribonuclease protection assay of cytokine transcription in TNFα-stimulated EOC-20 cells; assay type: cell-based, mouse
# Source text: It was noted that IL1β, IL1RA, IFNγ and MIF were affected by the treatments, while IL18 was not.
# LnCAP Production of PSA = assay: LnCAP production of PSA (ELISA); assay type: cell-based; conditions: Homo sapiens, LNCaP, 24 h
# Description: LnCAP prostate cancer cells were be cultured according to established methods (Horoszewicz et al., 1983). These cells product prostate-specific antigen (PSA), a serine protease that predicts metastatic potential ([…] et al., 2000). […] Each drug was tested in triplicate at each concentration. Medium was removed and tested for PSA concentration using a commercially available enzyme-linked immunosorbent assay (ELISA). Viability was determined in the adherent cells using the MTT assay.
# EOC-20 cells = test system: EOC-20 cells
# Description: as §1
# G93A-SOD1 mice = conditions: administered chronically; Gurney et al., 1996; cited from earlier work
# lipoxygenase = conditions: cited from earlier work
# human 5LOX = target: T1, human 5LOX; assay: Microtiter plate binding of SOD1 to immobilized 5LOX; conditions: Scatchard analysis, estimate
# Description: In order to circumvent these limitations of the BIAcore technique, a conceptually different strategy was employed to assess SOD1 binding to immobilized 5LOX. Standard 96 well polypropylene microtiter plates were coated with 5LOX by overnight incubation with the protein, which allows adsorption of the 5LOX through mostly hydrophobic interactions with the plate surface. As a control, half of each microplate was coated with BSA. The entire plate was then blocked with BSA, and subsequently incubated for 1 H with various concentrations of SOD1 dissolved in physiologic saline. Binding of SOD1 to the 5LOX-coated (or BSA-coated) microplate wells was quantified using alkaline phosphatase-conjugated anti-SOD1 polyclonal IgG, and p-nitrophenol as the chromophore. FIG. 15 illustrates preliminary binding data obtained from this experiment. SOD1 bound strongly to 5LOX-coated microplates but not to BSA-coated surfaces. […] Experiments may also be conducted to assess differences in 5LOX binding to wild-type versus mutant SOD1.
# human wild-type SOD1 = target: T2, human wild-type SOD1 (Homo sapiens, UniProt P00441); assay: BIAcore binding of 5LOX to immobilized SOD1; conditions: preliminary Scatchard analysis, upper bound
# T2 construct: purified to homogeneity from human erythrocytes; from tissue; host or cells: human erythrocytes
# Source text: Using several techniques that allow the study of protein-protein binding interactions in vitro, the interaction of SOD1 with 5LOX may be investigated. One approach involves the use of BIAcore instrumentation (Amersham-Pharmacia, Upsala, Sweden). The BIA (biomolecular interaction analysis) system consists of a solid-phase support upon which a protein (the ligand) can be covalently immobilized. This surface is placed in contact with a microfluidic cartridge, which dispenses a second protein (the analyte) across the binding surface. Adherence of the analyte to the immobilized ligand is measured by surface plasmon resonance (SPR) spectrometry. The surface plasmon resonance detector responds to refractive index changes in the vicinity of the sensor surface as the immobilized species interacts with its binding partner in the fluid phase. Data output from the BIAcore instrument takes the form of “sensorgrams” (FIG. 14A). Sensorgrams can be interpreted qualitatively, to assess whether a nonspecific binding event occurs, or quantitatively, in order to measure binding affinity.
# In a previous experiment, human wild-type SOD1 (purified to homogeneity from human erythrocytes) was covalently immobilized to the BIAcore chip via surface lysine residues, using standard carbodiimide coupling chemistry. […] Experiments to quantitate the binding affinity are conducted. […]
# [5] = Mus musculus, 24 h, Table III, 10 ng/mL TNFα, 24 hr, by interpolation
# T2 sequence (P00441 2-154 limits assumed): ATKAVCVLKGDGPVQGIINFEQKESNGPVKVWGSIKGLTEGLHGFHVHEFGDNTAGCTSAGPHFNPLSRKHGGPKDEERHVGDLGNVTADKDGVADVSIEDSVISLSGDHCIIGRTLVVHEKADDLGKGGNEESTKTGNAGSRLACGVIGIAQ
molecule,measurement,setting,value
"7-Bis (4-hydroxy-3-methoxyphenyl)-1,6-heptadiene-3,5-dione [Curcumin]",IC50,[1],72 µM
same,balance test,C57/B6 mice,no effect
same,rotarod test,C57/B6 mice,possibly a detrimental effect
same,IC50,"[2]; Table III, 10 ng/mL TNFα, 24 hr, by interpolation",7 µM
same,IC50,[2]; Table V,14 µM
CCCCC/C=C\C\C=C/C=C/C=C/[C@@H]1O[C@H]1CCCC(=O)O [LTA4],autonomous stimulation of NO2− production,[3],Neither LTA4 nor LTB4 stimulated NO2^− production autonomously
"CCCCC/C=C\C[C@@H](O)/C=C/C=C/C=C\[C@@H](O)CCCC(=O)O [LTB4, Leukotriene B4]",effect on nitrite yield with low-dose TNFα,"[3]; 10 μM, TNFα 4 ng/mL, 24 h",synergized with low-dose TNFα to produce a significantly greater nitrite yield
same,autonomous stimulation of NO2− production,[3],Neither LTA4 nor LTB4 stimulated NO2^− production autonomously
"Oc1cc(O)cc(/C=C/c2ccc(O)c(O)c2)c1 [Piceatannol, 3,3′,4′,5 -tetrahydroxy stilbene]",transcription of pro-inflammatory cytokines,[4],differentially inhibited transcription of the pro-inflammatory cytokines
same,IC50,LnCAP Production of PSA,42 µM
same,LD50,"EOC-20 cells; Table III, MTT viability, by extrapolation through sublethal concentrations",nontoxic
same,IC50,[2]; [5],15 µM
O=c1c(O)c(-c2ccc(O)c(O)c2)oc2cc(O)cc(O)c12 [Quercetin],IC50,LnCAP Production of PSA; extrapolated,131 µM
same,IC50,[1],0.062 µM
same,LD50,EOC-20 cells,nontoxic
same,IC50,[2]; [5],44 µM
"Oc1ccc(/C=C/c2cc(O)cc(O)c2)cc1 [Resveratrol, 3,4′,5-trihydroxy stilbene]",IC50,LnCAP Production of PSA,43 µM
same,LD50,EOC-20 cells,nontoxic
same,IC50,[2]; [5],80 µM
Nc1nc2ccc(OC(F)(F)F)cc2s1 [Riluzole],extension in lifespan,G93A-SOD1 mice,10 days
"O=C(/C=C/c1ccc(O)c(O)c1)OCCc1ccccc1 [caffeic acid phenethyl ester (CAPE), caffeic acid phenethyl ester]",lipoxygenase inhibition relative to NDGA,"lipoxygenase; times more effective than NDGA, Mirzoeva and Calder, 1996",~10 times
same,activity against TNFα-stimulated nitrite production,[2],approximately as effective as curcumin
same,IC50,[2]; [5],12 µM
same,IC50,"[2]; Mus musculus, Table V",12 µM
same,efficacy relative to NDGA as inhibitor of TNFα-stimulated microglial activation,[2]; fold less effective than NDGA,4 fold
O=C(O[C@@H]1Cc2c(O)cc(O)cc2O[C@@H]1c1ccc(O)c(O)c1)c1cc(O)c(O)c(O)c1 [epicatechin gallate],IC50,[1],10 µM
O=c1c(O)c(-c2ccc(O)cc2O)oc2cc(O)cc(O)c12 [morin],IC50,[1],56 µM
COc1ccc(C[C@@H](C)[C@@H](C)Cc2ccc(OC)c(OC)c2)cc1OC [tetra-o-methyl-NDGA],LD50,EOC-20 cells,125* μM
same,lipoxygenase inhibition,lipoxygenase; literature,does not inhibit lipoxygenase
same,activity against TNFα-stimulated nitrite production,[2],modest bioactivity
same,IC50,[2]; Table V,20 µM
"SOD1: Cu, Zn-superoxide dismutase, binding partner of 5LOX",Kd,human 5LOX,1.4 µM
B1,Kd,human wild-type SOD1,≤ 20 µM
